These molecules were tested on KCL-22 (assay: cell viability (% survival relative to DMSO control, bortezomib = 0%); higher = less cytotoxic). Settings: 1000 nM; 72 h.
Procedure, shortened: (§1)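 After 72 h at 37 °C with 5% CO2, cell viability in 384-well plates was measured by CellTiter-Glo luminescence. The plates held compounds pre-printed at 1, 10, 100, 1000 or 10000 nM in duplicate, and cells from 10 AML and 5 CML lines seeded at densities titrated to linear growth. Percent survival is the duplicate mean, normalised to vehicle as 100% and a 10 µM positive control as 0%.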
For `CC1Cc2ccccc2N1NC(=O)c1ccc(Cl)c(S(N)(=O)=O)c1` (centres undefined) [Indapamide], the cell viability was 102%.
`NS(=O)(=O)c1ccc(S(=O)(=O)Nc2cccc3c(Cl)c[nH]c23)cc1` [Indisulam] gave a cell viability of 58.6%.
Work on `COc1ccc2c(c1)c(CC(=O)O)c(C)n2C(=O)c1ccc(Cl)cc1` [Indomethacine] yielded a cell viability of 110%.
Work on `Cn1cc(C[C@@H](N)C(=O)O)c2ccccc21` [Indoximod] yielded a cell viability of 106%.

Same assay, conditions: 10000 nM; 72 h
In the case of `OC[C@H]1N[C@@H](c2c[nH]c3c(O)ncnc23)[C@H](O)[C@@H]1O` [Forodesine], the cell viability is reported as 91.3%.
`O=c1oc2c(cc1O)oc(=O)c1cc(O)c(O)c(O)c12` [Galloflavin] showed a cell viability of 112%.
In the case of `Nc1ccn([C@@H]2O[C@H](CO)[C@@H](O)C2(F)F)c(=O)n1` [Gemcitabine], the cell viability is reported as 9.48%.
For `N[C@@H](CCC(=O)N[C@@H](CS)C(=O)NCC(=O)O)C(=O)O` [Glutathione], the cell viability was 107%.
`Clc1cc(Cl)c(OCC#CI)cc1Cl` [Haloprogin] showed a cell viability of 2.51%.
`O=c1[nH]c(=O)n([C@H]2C[C@H](O)[C@@H](CO)O2)cc1I` [Idoxuridine] showed a cell viability of 26.3%.
Molecule `CC1Cc2ccccc2N1NC(=O)c1ccc(Cl)c(S(N)(=O)=O)c1` (centres undefined) [Indapamide] has a cell viability of 105%.
With `NS(=O)(=O)c1ccc(S(=O)(=O)Nc2cccc3c(Cl)c[nH]c23)cc1` [Indisulam] the cell viability was 19%.
`COc1ccc2c(c1)c(CC(=O)O)c(C)n2C(=O)c1ccc(Cl)cc1` [Indomethacine] showed a cell viability of 102%.
`Cn1cc(C[C@@H](N)C(=O)O)c2ccccc21` [Indoximod] showed a cell viability of 101%.

The molecules below were run on MOLM-13 in the same assay as above. Settings: 1 nM; 72 h.
Procedure, shortened: as §1
`OC[C@H]1N[C@@H](c2c[nH]c3c(O)ncnc23)[C@H](O)[C@@H]1O` [Forodesine] was tested, and the cell viability was 81.3%.
`O=c1oc2c(cc1O)oc(=O)c1cc(O)c(O)c(O)c12` [Galloflavin] showed a cell viability of 99.3%.
Molecule `Nc1ccn([C@@H]2O[C@H](CO)[C@@H](O)C2(F)F)c(=O)n1` [Gemcitabine] has a cell viability of 96.6%.
For `N[C@@H](CCC(=O)N[C@@H](CS)C(=O)NCC(=O)O)C(=O)O` [Glutathione], the cell viability was 111%.
`Clc1cc(Cl)c(OCC#CI)cc1Cl` [Haloprogin] was tested, and the cell viability was 100%.
Work on `O=c1[nH]c(=O)n([C@H]2C[C@H](O)[C@@H](CO)O2)cc1I` [Idoxuridine] yielded a cell viability of 116%.
Molecule `CC1Cc2ccccc2N1NC(=O)c1ccc(Cl)c(S(N)(=O)=O)c1` (centres undefined) [Indapamide] has a cell viability of 100%.
Molecule `NS(=O)(=O)c1ccc(S(=O)(=O)Nc2cccc3c(Cl)c[nH]c23)cc1` [Indisulam] has a cell viability of 122%.
`COc1ccc2c(c1)c(CC(=O)O)c(C)n2C(=O)c1ccc(Cl)cc1` [Indomethacine] was tested, and the cell viability was 105%.
For `Cn1cc(C[C@@H](N)C(=O)O)c2ccccc21` [Indoximod], the cell viability was 104%.

Same assay, conditions: 10 nM; 72 h
Work on `OC[C@H]1N[C@@H](c2c[nH]c3c(O)ncnc23)[C@H](O)[C@@H]1O` [Forodesine] yielded a cell viability of 89.2%.
In the case of `O=c1oc2c(cc1O)oc(=O)c1cc(O)c(O)c(O)c12` [Galloflavin], the cell viability is reported as 120%.
For `Nc1ccn([C@@H]2O[C@H](CO)[C@@H](O)C2(F)F)c(=O)n1` [Gemcitabine], the cell viability was 2.43%.
`N[C@@H](CCC(=O)N[C@@H](CS)C(=O)NCC(=O)O)C(=O)O` [Glutathione] gave a cell viability of 114%.
Work on `Clc1cc(Cl)c(OCC#CI)cc1Cl` [Haloprogin] yielded a cell viability of 113%.
`O=c1[nH]c(=O)n([C@H]2C[C@H](O)[C@@H](CO)O2)cc1I` [Idoxuridine] was tested, and the cell viability was 91.2%.
`CC1Cc2ccccc2N1NC(=O)c1ccc(Cl)c(S(N)(=O)=O)c1` (centres undefined) [Indapamide] showed a cell viability of 93.3%.
For `NS(=O)(=O)c1ccc(S(=O)(=O)Nc2cccc3c(Cl)c[nH]c23)cc1` [Indisulam], the cell viability was 102%.
`COc1ccc2c(c1)c(CC(=O)O)c(C)n2C(=O)c1ccc(Cl)cc1` [Indomethacine] showed a cell viability of 93.7%.
For `Cn1cc(C[C@@H](N)C(=O)O)c2ccccc21` [Indoximod], the cell viability was 97.7%.

Same assay, conditions: 100 nM; 72 h
For `OC[C@H]1N[C@@H](c2c[nH]c3c(O)ncnc23)[C@H](O)[C@@H]1O` [Forodesine], the cell viability was 93.1%.
With `O=c1oc2c(cc1O)oc(=O)c1cc(O)c(O)c(O)c12` [Galloflavin] the cell viability was 92%.
`Nc1ccn([C@@H]2O[C@H](CO)[C@@H](O)C2(F)F)c(=O)n1` [Gemcitabine] showed a cell viability of 0.0219%.
With `N[C@@H](CCC(=O)N[C@@H](CS)C(=O)NCC(=O)O)C(=O)O` [Glutathione] the cell viability was 91.4%.
`Clc1cc(Cl)c(OCC#CI)cc1Cl` [Haloprogin] was tested, and the cell viability was 112%.
With `O=c1[nH]c(=O)n([C@H]2C[C@H](O)[C@@H](CO)O2)cc1I` [Idoxuridine] the cell viability was 94.1%.
For `CC1Cc2ccccc2N1NC(=O)c1ccc(Cl)c(S(N)(=O)=O)c1` (centres undefined) [Indapamide], the cell viability was 96.5%.
Molecule `NS(=O)(=O)c1ccc(S(=O)(=O)Nc2cccc3c(Cl)c[nH]c23)cc1` [Indisulam] has a cell viability of 97.8%.
With `COc1ccc2c(c1)c(CC(=O)O)c(C)n2C(=O)c1ccc(Cl)cc1` [Indomethacine] the cell viability was 98.2%.
With `Cn1cc(C[C@@H](N)C(=O)O)c2ccccc21` [Indoximod] the cell viability was 81.3%.

Same assay, conditions: 1000 nM; 72 h
With `OC[C@H]1N[C@@H](c2c[nH]c3c(O)ncnc23)[C@H](O)[C@@H]1O` [Forodesine] the cell viability was 103%.
For `O=c1oc2c(cc1O)oc(=O)c1cc(O)c(O)c(O)c12` [Galloflavin], the cell viability was 115%.
In the case of `Nc1ccn([C@@H]2O[C@H](CO)[C@@H](O)C2(F)F)c(=O)n1` [Gemcitabine], the cell viability is reported as 0.303%.
Work on `N[C@@H](CCC(=O)N[C@@H](CS)C(=O)NCC(=O)O)C(=O)O` [Glutathione] yielded a cell viability of 92.5%.
In the case of `Clc1cc(Cl)c(OCC#CI)cc1Cl` [Haloprogin], the cell viability is reported as 108%.
Molecule `O=c1[nH]c(=O)n([C@H]2C[C@H](O)[C@@H](CO)O2)cc1I` [Idoxuridine] has a cell viability of 83.5%.
`CC1Cc2ccccc2N1NC(=O)c1ccc(Cl)c(S(N)(=O)=O)c1` (centres undefined) [Indapamide] was tested, and the cell viability was 100%.
`NS(=O)(=O)c1ccc(S(=O)(=O)Nc2cccc3c(Cl)c[nH]c23)cc1` [Indisulam] was tested, and the cell viability was 32.6%.
With `COc1ccc2c(c1)c(CC(=O)O)c(C)n2C(=O)c1ccc(Cl)cc1` [Indomethacine] the cell viability was 108%.
For `Cn1cc(C[C@@H](N)C(=O)O)c2ccccc21` [Indoximod], the cell viability was 86.8%.

Same assay, conditions: 10000 nM; 72 h
`OC[C@H]1N[C@@H](c2c[nH]c3c(O)ncnc23)[C@H](O)[C@@H]1O` [Forodesine] was tested, and the cell viability was 84.1%.
Work on `O=c1oc2c(cc1O)oc(=O)c1cc(O)c(O)c(O)c12` [Galloflavin] yielded a cell viability of 119%.
With `Nc1ccn([C@@H]2O[C@H](CO)[C@@H](O)C2(F)F)c(=O)n1` [Gemcitabine] the cell viability was 0.34%.
`N[C@@H](CCC(=O)N[C@@H](CS)C(=O)NCC(=O)O)C(=O)O` [Glutathione] was tested, and the cell viability was 92.1%.
With `Clc1cc(Cl)c(OCC#CI)cc1Cl` [Haloprogin] the cell viability was 6.57%.
